Measured values from PubChem BioAssay AID262 (DTP/NCI, 2004).
Values joined by “and” are separate entries in the source; they are usually repeats but may differ in a detail not shown here. Equal entries are not always repeated.

Test system: LX-1 lung xenograft sc, nude mice, tumor weight
Experiment: NCI In Vivo Anticancer Drug Screen. Data for tumor model Human Lung LX-1 Xenograft (subcutaneous) in NU/NU Swiss (nude) mice
Conditions: endpoint: optimum tumor weight change, schedule: Q04DX003 (ip), higher = larger tumour
Experimental: The antitumor activity of compounds was measured in mice bearing transplantable tumors. Survival or tumor size were measured and the results are expressed as the measurement made in the treated group (T) divided by the measurement made in the vehicle treated control group (C). The tumor model used in this assay is Human Lung LX-1 Xenograft (subcutaneous) in NU/NU Swiss (nude) mice

[1] = dose: 0.25 mg/kg/injection, vehicle: saline
[2] = dose: 0.5 mg/kg/injection, vehicle: saline
[3] = dose: 6.25 mg/kg/injection, vehicle: saline
[4] = dose: 12.5 mg/kg/injection, vehicle: saline
[5] = dose: 25.0 mg/kg/injection, vehicle: saline
[6] = dose: 200.0 mg/kg/injection, vehicle: suspension in saline
[7] = dose: 8.0 mg/kg/injection, vehicle: saline
[8] = dose: 15.0 mg/kg/injection, vehicle: saline
[9] = dose: 30.0 mg/kg/injection, vehicle: saline
[10] = dose: 1.0 mg/kg/injection, vehicle: saline
[11] = dose: 400.0 mg/kg/injection, vehicle: suspension in saline
[12] = dose: 200.0 mg/kg/injection, vehicle: saline
[13] = dose: 4.0 mg/kg/injection, vehicle: saline

Q: For `CC[C@]1(O)C[C@H]2CN(CCc3c([nH]c4ccccc34)[C@@](C(=O)OC)(c3cc4c(cc3OC)N(C=O)[C@H]3[C@@](O)(C(=O)OC)[C@H](OC(C)=O)[C@]5(CC)C=CCN6CC[C@]43[C@@H]65)C2)C1`, which T/C [1] is on record?
A: Its T/C is 98 % of control.

Q: And the T/C [2]?
A: Its T/C is 79 % of control.

Q: How did the T/C (dose: 3.13 mg/kg/injection, vehicle: saline) turn out when `C=C(C)[C@H]1Cc2c(ccc3c2O[C@@H]2COc4cc(OC)c(OC)cc4[C@@H]2C3=O)O1` was run?
A: Its T/C is 106 % of control.

Q: And the T/C [3]?
A: Its T/C is 73 % of control.

Q: And the T/C [4]?
A: Its T/C is 91 % of control.

Q: What about the T/C [5] of the same molecule?
A: The T/C was 102 % of control.

Q: For `CN1CCN(CCCN2c3ccccc3Sc3ccc(C(F)(F)F)cc32)CC1`, which T/C [3] is on record?
A: Its T/C is 63 % of control.

Q: And the T/C [4]?
A: Its T/C is 78 % of control.

Q: And the T/C [5]?
A: The T/C was 84 % of control.

Q: `OCC1OC(n2cnc3cncnc32)C(O)C1O` (stereo unspecified) was tested. Which T/C [5] did it give?
A: The T/C was 83 % of control.

Q: Which T/C (dose: 0.4 mg/kg/injection, vehicle: saline) does the source give for `COc1cccc2c1C(=O)c1c(O)c3c(c(O)c1C2=O)C[C@@](O)(C(=O)CO)C[C@@H]3OC1CC(N)C(OC)C(C)O1` (stereo partly specified) here?
A: The T/C was 84 % of control.

Q: And the T/C (dose: 0.79 mg/kg/injection, vehicle: saline)?
A: The T/C was 106 % of control.

Q: And the T/C (dose: 1.57 mg/kg/injection, vehicle: saline)?
A: The T/C was 40 % of control.

Q: How did the T/C (dose: 20.0 mg/kg/injection, vehicle: saline with Tween-80) turn out when `CSc1cc(=O)n2c3ccccc3c3ccnc1c32` was run?
A: The T/C was 92 % of control.

Q: And the T/C (dose: 40.0 mg/kg/injection, vehicle: saline with Tween-80)?
A: Its T/C is 71 % of control.

Q: What about the T/C (dose: 80.0 mg/kg/injection, vehicle: saline with Tween-80) of the same molecule?
A: Its T/C is 93 % of control.

Q: What about the T/C (dose: 160.0 mg/kg/injection, vehicle: saline with Tween-80) of the same molecule?
A: The T/C was 92 % of control.

Q: What does the source list for `Oc1cc2c3c(c1)c1cc4c(cc1c[n+]3CC2)OCO4`?
A: T/C (dose: 12.5 mg/kg/injection, vehicle: water): 78 % of control; T/C (dose: 25.0 mg/kg/injection, vehicle: water): 63 % of control; T/C (dose: 50.0 mg/kg/injection, vehicle: water): 62 % of control

Q: How did the T/C [6] turn out when `O=CC(S)CO` (stereo unspecified) was run?
A: Its T/C is 99 % of control.

Q: What does the source list for `NC(=S)N/N=C/c1ccc(O)cn1`?
A: T/C (dose: 200.0 mg/kg/injection, vehicle: saline with Tween-80): 64 % of control; T/C (dose: 400.0 mg/kg/injection, vehicle: saline with Tween-80): 76 % of control

Q: `CCCCNCCCNCCCNC(=O)c1csc(-c2csc(CCNC(=O)C(NC(=O)C(C)C(O)C(C)NC(=O)C(NC(=O)c3nc(C(CC(N)=O)NCC(N)C(N)=O)nc(N)c3C)C(OC3OC(CO)C(O)C(O)C3OC3OC(CO)C(O)C(OC(N)=O)C3O)c3cnc[nH]3)C(C)O)n2)n1` (stereo unspecified) was tested. Which T/C [7] did it give?
A: The T/C was 56 % of control.

Q: What about the T/C [8] of the same molecule?
A: Its T/C is 19 % of control.

Q: What about the T/C (dose: 16.0 mg/kg/injection, vehicle: saline) of the same molecule?
A: The T/C was 30 % of control.

Q: What about the T/C [9] of the same molecule?
A: The T/C was 20 % of control.

Q: What about the T/C (dose: 32.0 mg/kg/injection, vehicle: saline) of the same molecule?
A: The T/C was 26 % of control.

Q: And the T/C (dose: 64.0 mg/kg/injection, vehicle: saline)?
A: Its T/C is 19 % of control.

Q: What about the T/C (dose: 128.0 mg/kg/injection, vehicle: saline) of the same molecule?
A: The T/C was 1 % of control.

Q: What does the source list for `O=c1[nH]c2c(ccc3cnccc32)c2c1CCC2`?
A: T/C (dose: 12.5 mg/kg/injection, vehicle: suspension in saline): 35 % of control; T/C (dose: 25.0 mg/kg/injection, vehicle: suspension in saline): 70 % of control; T/C (dose: 50.0 mg/kg/injection, vehicle: suspension in saline): 61 % of control

Q: Which T/C [1] does the source give for `COc1cccc2c1C(=O)c1c(O)c3c(c(O)c1C2=O)C[C@@](O)(C(C)=O)C[C@@H]3OC1CC(N)C(O)C(C)O1` (stereo partly specified) here?
A: Its T/C is 52 % of control.

Q: What about the T/C [2] of the same molecule?
A: Its T/C is 39 % of control.

Q: And the T/C [10]?
A: Its T/C is 86 % of control.

Q: For `O=NN(CCCl)C(=O)NC1CCC(=O)NC1=O` (stereo unspecified), which T/C (dose: 5.0 mg/kg/injection, vehicle: saline with Tween-80) is on record?
A: The T/C was 49 % of control.

Q: `CC(=O)OCC1OC(n2ccc(N)nc2=O)C(OC(C)=O)C1OC(C)=O` (stereo unspecified) was tested. Which T/C [6] did it give?
A: The T/C was 102 % of control.

Q: What about the T/C [11] of the same molecule?
A: The T/C was 78 % of control.

Q: Which results are given for `COc1cc([C@@H]2c3cc4c(c(O)c3C[C@H]3COC(=O)[C@@H]32)OCO4)cc(OC)c1OC`?
A: T/C (dose: 2.5 mg/kg/injection, vehicle: saline): 107 % of control; T/C (dose: 5.0 mg/kg/injection, vehicle: saline): 73 % of control; T/C (dose: 10.0 mg/kg/injection, vehicle: saline): 86 % of control; T/C (dose: 20.0 mg/kg/injection, vehicle: saline): 64 % of control

Q: How did the T/C [12] turn out when `COC(OC(CO)C(O)S(=O)(=O)O)C(O)S(=O)(=O)O` (stereo unspecified) was run?
A: Its T/C is 45 % of control.

Q: And the T/C [6]?
A: The T/C was 89 % of control.

Q: And the T/C [11]?
A: The T/C was 82 % of control.

Q: And the T/C (dose: 800.0 mg/kg/injection, vehicle: suspension in saline)?
A: The T/C was 41 % of control.

Q: With `CCCC(=O)OCc1cc(=O)n(C)c2c3c4c(cc12)c(C)cc(=O)n4CO3` as the molecule, how does the T/C (dose: 50.0 mg/kg/injection, vehicle: Klucel (hydroxypropylcellulose) (HPC)) read?
A: Its T/C is 116 % of control.

Q: `Cc1c(N)nc(C(CC(N)=O)NCC(N)C(N)=O)nc1C(=O)NC(C(=O)NC(C)C(O)C(C)C(=O)NC(C(=O)NCCc1nc(-c2nc(C(=O)NCCCNC(C)c3ccccc3)cs2)cs1)C(C)O)C(OC1OC(CO)C(O)C(O)C1OC1OC(CO)C(O)C(OC(N)=O)C1O)c1cnc[nH]1` (stereo unspecified) was tested. Which T/C [8] did it give?
A: Its T/C is 35 % of control.

Q: What about the T/C [9] of the same molecule?
A: Its T/C is 35 % of control.

Q: With `CS(=O)(=O)OCCN(CCOS(C)(=O)=O)c1ccc(C=Nc2ccc(-c3csc(COc4ccccc4)n3)cc2)cc1` as the molecule, how does the T/C (dose: 100.0 mg/kg/injection, vehicle: Klucel (hydroxypropylcellulose) (HPC)) read?
A: The T/C was 82 % of control.

Q: What does the source list for `COc1ccc2c(NCCCCCCCCNc3c4ccccc4nc4cc(OC)ccc34)c3ccccc3nc2c1`?
A: T/C (dose: 0.5 mg/kg/injection, vehicle: distilled water + alcohol): 67 % of control; T/C [2]: 60 % of control; T/C (dose: 1.0 mg/kg/injection, vehicle: distilled water + alcohol): 45 % of control; T/C [10]: 61 % of control; T/C (dose: 2.0 mg/kg/injection, vehicle: distilled water + alcohol): 79 % of control; T/C (dose: 2.0 mg/kg/injection, vehicle: saline): 86 % of control; T/C (dose: 4.0 mg/kg/injection, vehicle: distilled water + alcohol): 45 % of control; T/C [13]: 65 % of control

Q: How did the T/C [13] turn out when `Cc1c(N)nc(C(CC(N)=O)NCC(N)C(N)=O)nc1C(=O)NC(C(=O)NC(C)C(O)CC(=O)NC(C(=O)NC(OC1OC(C)C(N)C(O)C1O)C(O)c1nc(-c2nc(C(=O)NCCCC(N)CC(=O)NCCCNCCCCN)cs2)cs1)C(C)O)C(OC1OC(CO)C(O)C(O)C1OC1OC(CO)C(O)C(OC(N)=O)C1O)c1cnc[nH]1` (stereo unspecified) was run?
A: Its T/C is 52 % of control.

Q: What about the T/C [7] of the same molecule?
A: Its T/C is 23 % of control.

Q: What does the source list for `N[C@@H](Cc1ccc(N(CCCl)CCCl)cc1)C(=O)O`?
A: T/C (dose: 4.0 mg/kg/injection, vehicle: suspension in saline): 81 % of control and 87 % of control; T/C (dose: 8.0 mg/kg/injection, vehicle: suspension in saline): 56 % of control

Q: `Nc1cc2[nH]cnc2c(=O)[nH]1` was tested. Which T/C (dose: 50.0 mg/kg/injection, vehicle: saline) did it give?
A: Its T/C is 96 % of control.

Q: And the T/C (dose: 100.0 mg/kg/injection, vehicle: saline)?
A: The T/C was 123 % of control.

Q: What about the T/C [12] of the same molecule?
A: The T/C was 112 % of control.

Q: For `O=NN(CCCl)C(=O)NC1CCCCC1`, which T/C (dose: 10.0 mg/kg/injection, vehicle: Klucel (hydroxypropylcellulose) (HPC)) is on record?
A: Its T/C is 44 % of control.

Q: What about the T/C (dose: 20.0 mg/kg/injection, vehicle: Klucel (hydroxypropylcellulose) (HPC)) of the same molecule?
A: Its T/C is 32 % of control.

Q: For `CCC[CH2][Sn]1([CH2]CCC)[O]C2C(CO)OC(n3ccc(N)nc3=O)C2[O]1` (stereo unspecified), which T/C (dose: 3.13 mg/kg/injection, vehicle: Klucel (hydroxypropylcellulose) (HPC)) is on record?
A: Its T/C is 107 % of control and 108 % of control.

Q: What about the T/C (dose: 6.25 mg/kg/injection, vehicle: Klucel (hydroxypropylcellulose) (HPC)) of the same molecule?
A: The T/C was 197 % of control.

Q: What about the T/C (dose: 12.5 mg/kg/injection, vehicle: Klucel (hydroxypropylcellulose) (HPC)) of the same molecule?
A: The T/C was 77 % of control.
